The text below walks through data of paper PMC10800708, “Efficacies and ADME properties of redox active methylene blue and phenoxazine analogues for use in new antimalarial triple drug combinations with amino-artemisinins” (Frontiers in Pharmacology, 2024).

The subject of series [1] is Plasmodium falciparum DD2. The series is described as follows: Parasite lactate dehydrogenase (pLDH) assay over 72 h, CQ-resistant strain. Conditions: for Resistance index: IC50 (resistant strain)/IC50 (sensitive strain), DD2/NF54; for IC50: Plasmodium falciparum, CQ-resistant DD2, pLDH 72 h, n = 3, read-out: Plasmodium falciparum IC50 DD2. Type of series: cell-based. The procedure: The assay was performed in quadruplicate. The data were analyzed by nonlinear regression analysis using the GraphPad PRISM version 5.00 program to determine the IC50 of each compound.

A short description of series [2]: Plasma stability in pooled human plasma. Type of series: in vitro ADME. As to conditions: for half-life: 37°C. The protocol: . […] The aqueous mobile phase was water with 0.1% formic acid and the organic mobile phase was acetonitrile with 0.1% formic acid. The gradient method has a flow rate of 0.8 mL/min, with a total run time of 2.5 min starting at 5% organic and increasing to 95% at 1.4 min, holding for 40 s before returning to 5% to re-equilibrate the column. • ii. Lipophilicity. Stock solutions (10 mM) of compounds were diluted to 100 μM in 96-well deep-well plate containing 300 µL of 1-octanol and 300 µL of phosphate buffer at pH 7.4. The plate was agitated on an orbital shaker at 750 rpm for 2 h. The organic and buffer layers of each well were transferred separately to a new analysis plate. The samples were analysed with the HPLC diode array detection as described for kinetic solubility. Samples from both layers were analysed to determine LogD7.4 values. • iii. Passive permeability. A parallel artificial membrane permeation assay (PAMPA) was used to assess the passive permeability of compounds with a 96-well MultiScreen filter plate ([…] pore size, Millipore). The filter plate was precoated with 5% hexadecane in hexane. Stock solutions of compounds were diluted to 1 mM in a donor buffer (pH 6.5). Lucifer yellow was added to the apical wells of the precoated MultiScreen plate containing compound donor solution. The donor buffer solutions were spiked with each test compound (1 mM). The acceptor-buffer solution was prepared by adding 10 μL DMSO to 990 μL acceptor buffer (pH 7.4) and 250 μL were added to the basolateral (acceptor) wells. The donor plate was carefully inserted into the acceptor plate and incubated at room temperature for 4 h. After the incubation period, 50 μL of samples from the acceptor plate were transferred to a round bottom 96-well plate, together with 30 μL of donor buffer for matrix matching. Theoretical equilibrium samples for each test compound were prepared by adding 150 μL of donor solutions to 250 μL acceptor solutions and left at room temperature. These theoretical equilibrium samples represent complete transfer of the compound into the donor well. For the theoretical equilibrium samples, 80 μL were added to the analysis plate. Lastly, 160 μL of the internal standard carbamazepine (0.1 μM) was added to all acceptor and equilibrium samples. A portion of the sample containing Lucifer yellow was analyzed on a BioRad iMarkTM Microplate Absorbance Reader (BioRad, Hercules, CA, United States; […]. Samples were analysed using reverse phase Gemini NX-C18 column (5 μm, 2.1 mm × 50 mm) with a Shimadzu HPLC coupled with an AB Sciex 3200 Q TRAP MS). […]. Plasma stability. Stock solutions of compounds in DMSO (10 mM) were used to spike pooled human plasma. […]
. Plasma protein binding was determined in pooled human plasma using an ultracentrifugation method. […]

For series [3], the system named is CQ-sensitive Plasmodium falciparum NF54 strain. The series is described as follows: Fixed ratio combination (isobologram) experiments, 72-h pLDH assay. Type of series: cell-based. Conditions: asexual blood stages, Pf NF54, fixed ratio isobologram. The procedure: Artemisone was used in the combination studies with each of AD01 and PhX6. Combination studies were conducted using a modified version of the method described by [Fivelman et al. (2004)] ([Fivelman et al., 2004]). Against drug-sensitive NF54 P. falciparum parasites in the standard 72-h pLDH assay. The drug stocks were then mixed to make 6 different volumetric ratios to obtain a range of concentrations (Table 2). Concentration ranges for combinations were prepared from the predetermined single IC50 values (Table 3) such that the IC50 of the individual compounds would be in the middle of the plate. The FIC50 and ∑FIC were calculated as described in Eqs 6–8 ([Fivelman et al., 2004]).
Eq. 6: FIC50 of compound A FIC50A=IC50 A+B/IC50 A
Eq. 7: FIC50 of compound B FIC50B=IC50 B+A/IC50 B
Finally, FIC50 values of compounds in respective combinations were plotted as isobolograms.
Although there is currently no standardised method to determine drug combination effects, many models are available ([Wagner and Ulrich-Merzenich, 2009]; [Matthews et al., 2017]). The fixed ratio isobologram method has been widely used in many fields including antimalarial drug discovery and development ([Fivelman et al., 2004]; [Wagner and Ulrich-Merzenich, 2009]; [Matthews et al., 2017]). […] The relationship can also be determined by plotting the FIC50 of each compound on separate axes to create an isobologram. […]

The term IC50 denotes the concentration needed to halve the response being measured. Broadly, the half-life is how long it takes for the measured level to halve. Read a high half-life as slow loss. In the case of `CCN(CC)c1ccc2nc3ccc(=[N+](CC)CC)cc-3sc2c1` [AD01], in series [1], the Resistance index was determined as 0.5 and the IC50 was 11.9 ± 2.8 nM. The same compound displayed a half-life in series [2] of 1.42 h. For the same compound, in series [2] (3 h), the “Parent remaining in plasma after 3 h” value is recorded as 21%. Further, the “Interaction in combination with artemisone (overall, in words)” value in series [3] was “enhanced synergistically”.
For the compound `CCN(CC)c1ccc2nc3c4ccccc4/c(=N\c4ccccn4)cc-3oc2c1` [PhX6], in series [1], the Resistance index is on record as 0.4 and the half-inhibitory concentration (IC50) was 16.2 ± 2.4 nM. In series [2], the half-life was greater than 2.5 h. For the same compound, in series [3], the “Interaction in combination with artemisone (overall, in words)” value is listed as “enhanced synergistically”.
